Source: patent US20030118577A1, “Use of analogues of superoxide dismutase for treating hepatocellular insufficiencies” (priority 2000, published 2003)

Test system: acute hepatic insufficiency induced by acetaminophen
Assay: Survival of mice after intraperitoneal acetaminophen (acute hepatic insufficiency)
Description: The intraperitoneal injection of acetaminophen into mice induces a severe hepatotoxicity, the degree of which may be evaluated by the survival of the animals, measuring transaminase activities, and macroscopic and microscopic examination of the livers.
The acetaminophen in solution at 100 mg/ml in PBS at pH 7.4 is administered by the intraperitoneal route.
In a first series of experiments, a group of mice received a dose of 1000 mg/kg of acetaminophen; a second group received a dose of 1000 mg/kg of acetaminophen and a dose of 10 mg/kg of MnTBAP administered either 2 h before the acetaminophen or 6 h after; a control group received either MnTBAP alone (10 mg/kg), or PBS alone.
The survival of the animals is monitored for 24 hours after the administration of acetaminophen.
The effect of N-acetyl-L-cysteine (NAC), of CuDIPS, and of MnTBAP on the survival of mice after intraperitoneal injection of 1000 mg/kg of acetaminophen (APAP) was compared.
MnTBAP, NAC, or CuDIPS are administered in the form of a bolus, preventively, 2 hours before (P) or, curatively, 6 hours after (C) the acetaminophen.
The survival of the animals is monitored for 24 hours after administration of acetaminophen.

O=C(O)c1ccc(-c2c3nc(c(-c4ccc(C(=O)O)cc4)c4ccc([n-]4)c(-c4ccc(C(=O)O)cc4)c4nc(c(-c5ccc(C(=O)O)cc5)c5ccc2[n-]5)C=C4)C=C3)cc1.[Mn+3] [MnTBAP, Mn(III) tetrakis(5,10,15,20-benzoic acid)porphyrin]
81%: percentage of surviving animals (Group VII: APAP 1000 mg/kg, MnTBAP 10 mg/kg (C), time 12 h)
65.7%: percentage of surviving animals (Group V: APAP 1000 mg/kg, MnTBAP 10 mg/kg (P), time 18 h) | percentage of surviving animals (Group V: APAP 1000 mg/kg, MnTBAP 10 mg/kg (P), time 20 h) | percentage of surviving animals (Group V: APAP 1000 mg/kg, MnTBAP 10 mg/kg (P), time 22 h)
100%: percentage of surviving animals (Group VI: APAP 1000 mg/kg, MnTBAP 20 mg/kg (P), time 0 h) | percentage of surviving animals (Group VI: APAP 1000 mg/kg, MnTBAP 20 mg/kg (P), time 6 h) | percentage of surviving animals (Group VI: APAP 1000 mg/kg, MnTBAP 20 mg/kg (P), time 8 h) | percentage of surviving animals (Group VI: APAP 1000 mg/kg, MnTBAP 20 mg/kg (P), time 9 h) | percentage of surviving animals (Group VI: APAP 1000 mg/kg, MnTBAP 20 mg/kg (P), time 10 h) | percentage of surviving animals (Group VI: APAP 1000 mg/kg, MnTBAP 20 mg/kg (P), time 11 h) | percentage of surviving animals (Group VI: APAP 1000 mg/kg, MnTBAP 20 mg/kg (P), time 12 h) | percentage of surviving animals (Group VI: APAP 1000 mg/kg, MnTBAP 20 mg/kg (P), time 13 h) | percentage of surviving animals (Group VI: APAP 1000 mg/kg, MnTBAP 20 mg/kg (P), time 14 h) | percentage of surviving animals (Group VII: APAP 1000 mg/kg, MnTBAP 10 mg/kg (C), time 0 h) | percentage of surviving animals (Group VII: APAP 1000 mg/kg, MnTBAP 10 mg/kg (C), time 6 h) | percentage of surviving animals (Group VII: APAP 1000 mg/kg, MnTBAP 10 mg/kg (C), time 8 h) | percentage of surviving animals (Group VII: APAP 1000 mg/kg, MnTBAP 10 mg/kg (C), time 9 h) | percentage of surviving animals (Group VIII: APAP 1000 mg/kg, MnTBAP 20 mg/kg (C), time 0 h) | percentage of surviving animals (Group VIII: APAP 1000 mg/kg, MnTBAP 20 mg/kg (C), time 6 h) | percentage of surviving animals (Group VIII: APAP 1000 mg/kg, MnTBAP 20 mg/kg (C), time 8 h) | percentage of surviving animals (Group VIII: APAP 1000 mg/kg, MnTBAP 20 mg/kg (C), time 9 h) | percentage of surviving animals (Group VIII: APAP 1000 mg/kg, MnTBAP 20 mg/kg (C), time 10 h) | percentage of surviving animals (Group VIII: APAP 1000 mg/kg, MnTBAP 20 mg/kg (C), time 11 h)
69%: percentage of surviving animals (Group VII: APAP 1000 mg/kg, MnTBAP 10 mg/kg (C), time 13 h) | percentage of surviving animals (Group VII: APAP 1000 mg/kg, MnTBAP 10 mg/kg (C), time 14 h) | percentage of surviving animals (Group VII: APAP 1000 mg/kg, MnTBAP 10 mg/kg (C), time 15 h)
68.6%: percentage of surviving animals (Group V: APAP 1000 mg/kg, MnTBAP 10 mg/kg (P), time 17 h)
94%: percentage of surviving animals (Group VII: APAP 1000 mg/kg, MnTBAP 10 mg/kg (C), time 10 h) | percentage of surviving animals (Group VII: APAP 1000 mg/kg, MnTBAP 10 mg/kg (C), time 11 h)
56%: percentage of surviving animals (Group VII: APAP 1000 mg/kg, MnTBAP 10 mg/kg (C), time 16 h) | percentage of surviving animals (Group VII: APAP 1000 mg/kg, MnTBAP 10 mg/kg (C), time 17 h) | percentage of surviving animals (Group VII: APAP 1000 mg/kg, MnTBAP 10 mg/kg (C), time 18 h) | percentage of surviving animals (Group VII: APAP 1000 mg/kg, MnTBAP 10 mg/kg (C), time 20 h) | percentage of surviving animals (Group VII: APAP 1000 mg/kg, MnTBAP 10 mg/kg (C), time 22 h)
No death: death of animals (MnTBAP alone 10 mg/kg ip, no acetaminophen, 24 hours)
62.9%: percentage of surviving animals (Group V: APAP 1000 mg/kg, MnTBAP 10 mg/kg (P), time 24 h)
44%: percentage of surviving animals (Group VII: APAP 1000 mg/kg, MnTBAP 10 mg/kg (C), time 24 h)
80%: percentage of surviving animals (Group VIII: APAP 1000 mg/kg, MnTBAP 20 mg/kg (C), time 17 h) | percentage of surviving animals (Group VIII: APAP 1000 mg/kg, MnTBAP 20 mg/kg (C), time 18 h)
70%: percentage of surviving animals (Group VIII: APAP 1000 mg/kg, MnTBAP 20 mg/kg (C), time 20 h) | percentage of surviving animals (Group VIII: APAP 1000 mg/kg, MnTBAP 20 mg/kg (C), time 22 h) | percentage of surviving animals (Group VIII: APAP 1000 mg/kg, MnTBAP 20 mg/kg (C), time 24 h)
90%: percentage of surviving animals (Group VI: APAP 1000 mg/kg, MnTBAP 20 mg/kg (P), time 15 h) | percentage of surviving animals (Group VI: APAP 1000 mg/kg, MnTBAP 20 mg/kg (P), time 16 h) | percentage of surviving animals (Group VI: APAP 1000 mg/kg, MnTBAP 20 mg/kg (P), time 17 h) | percentage of surviving animals (Group VI: APAP 1000 mg/kg, MnTBAP 20 mg/kg (P), time 18 h) | percentage of surviving animals (Group VI: APAP 1000 mg/kg, MnTBAP 20 mg/kg (P), time 20 h) | percentage of surviving animals (Group VI: APAP 1000 mg/kg, MnTBAP 20 mg/kg (P), time 22 h) | percentage of surviving animals (Group VI: APAP 1000 mg/kg, MnTBAP 20 mg/kg (P), time 24 h) | percentage of surviving animals (Group VIII: APAP 1000 mg/kg, MnTBAP 20 mg/kg (C), time 12 h) | percentage of surviving animals (Group VIII: APAP 1000 mg/kg, MnTBAP 20 mg/kg (C), time 13 h) | percentage of surviving animals (Group VIII: APAP 1000 mg/kg, MnTBAP 20 mg/kg (C), time 14 h) | percentage of surviving animals (Group VIII: APAP 1000 mg/kg, MnTBAP 20 mg/kg (C), time 15 h) | percentage of surviving animals (Group VIII: APAP 1000 mg/kg, MnTBAP 20 mg/kg (C), time 16 h)
